From BindingDB's records for doi:10.1080/14756360400004565 (Universit&Eacute, 2004)

Each molecule was assayed against Glycogen synthase kinase-3 beta (Homo sapiens, UniProt P49841) (assay: Kinase Assay).
Experimental: Kinase activities were assayed according to the methodology developed by the Cell Cycle Group of the Station Biologique (CNRS).

Glycogen synthase kinase-3 beta, sequence (P49841 whole entry): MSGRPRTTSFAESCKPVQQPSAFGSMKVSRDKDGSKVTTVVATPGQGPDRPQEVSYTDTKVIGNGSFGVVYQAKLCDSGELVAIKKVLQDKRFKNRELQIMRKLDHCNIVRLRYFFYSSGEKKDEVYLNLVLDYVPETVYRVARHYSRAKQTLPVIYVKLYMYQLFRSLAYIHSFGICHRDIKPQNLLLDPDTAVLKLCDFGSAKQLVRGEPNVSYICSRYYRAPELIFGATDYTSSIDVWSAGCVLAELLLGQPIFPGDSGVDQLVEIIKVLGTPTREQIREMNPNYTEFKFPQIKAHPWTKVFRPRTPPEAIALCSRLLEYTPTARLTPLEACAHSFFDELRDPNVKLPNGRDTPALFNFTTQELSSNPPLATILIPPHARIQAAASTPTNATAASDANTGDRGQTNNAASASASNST

Q: With `COc1ccc(-c2csc3c2-n2cccc2C3=O)cc1O` [MR-22388] as the molecule, how does the IC50 read?
A: The IC50 was 1.5 µM.

Q: `CC(=O)Oc1ccc(-c2csc3c2-n2cccc2C3=O)cc1OC(C)=O` [Thienopyrrolizine derivative, 4h] was tested. Which IC50 did it give?
A: Its IC50 is > 50 µM.

Q: With `COc1ccc(-c2csc3c2-n2cccc2C3=O)cc1OC(=O)C(C)(C)C` [Thienopyrrolizine derivative, 4m] as the molecule, how does the IC50 read?
A: The IC50 was > 50 µM.

Q: How did the IC50 turn out when `CCC(=O)Oc1ccc(-c2csc3c2-n2cccc2C3=O)cc1OC(=O)CC` [Thienopyrrolizine derivative, 4i] was run?
A: Its IC50 is > 50 µM.

Q: Which IC50 does the source give for `Cc1ccc(-c2csc3c2-n2cccc2C3=O)cc1` [Thienopyrrolizine derivative, 4a] here?
A: Its IC50 is > 50 µM.

Q: `COc1ccc(-c2csc3c2-n2cccc2C3=O)cc1OC(=O)CCCC(=O)O` [Thienopyrrolizine derivative, 4n] was tested. Which IC50 did it give?
A: Its IC50 is 11 µM.

Q: `COc1ccc(-c2csc3c2-n2cccc2C3=O)cc1OC(C)=O` [Thienopyrrolizine derivative, 4k] was tested. Which IC50 did it give?
A: Its IC50 is > 50 µM.

Q: Which IC50 does the source give for `CCOc1ccc(-c2csc3c2-n2cccc2C3=O)cc1` [Thienopyrrolizine derivative, 4c] here?
A: The IC50 was > 50 µM.

Q: For `O=C1c2cscc2-n2cccc21` [Thienopyrrolizine derivative, 5], which IC50 is on record?
A: The IC50 was > 50 µM.

Q: How did the IC50 turn out when `CCOC(=O)Oc1cc(-c2csc3c2-n2cccc2C3=O)ccc1OC` [Thienopyrrolizine derivative, 4l] was run?
A: The IC50 was > 50 µM.

Q: Which IC50 does the source give for `COc1cccc(-c2csc3c2-n2cccc2C3=O)c1` [Thienopyrrolizine derivative, 4b] here?
A: The IC50 was > 50 µM.

Q: Which IC50 does the source give for `COc1ccc(-c2csc3c2-n2cccc2C3O)cc1O` (centres undefined) [Thienopyrrolizine derivative, 13g] here?
A: The IC50 was 19 µM.

Q: For `COc1ccc(-c2csc3c2-n2cccc2C3=O)cc1OCc1ccccc1`, which IC50 is on record?
A: Its IC50 is > 50 µM.

Q: With `COc1ccc(-c2csc3c2-n2cccc2C3O)cc1OCc1ccccc1` (centres undefined) [Thienopyrrolizine derivative, 13e] as the molecule, how does the IC50 read?
A: The IC50 was > 50 µM.
